Measured values from patent US20070244060A1, “Therapeutic Agent for Autoimmune Disease” (priority 2003, published 2007).

Assays:
Format in all cases: cell-based, human
[1] = test system: rheumatoid synoviocytes (RA); test: ER stress-inducible apoptosis, ssDNA Apoptosis ELISA, rheumatoid synoviocytes; settings: RA synoviocytes (5 cases), 24 hours, FIG. 5
Method: (§1) The experiments were carried out as follows. […] Endoplasmic reticulum stress-inducible apoptosis was induced using tunicamycin at concentrations of 10, 30, and 100 μg/mL. Apoptosis was quantitated using the ssDNA Apoptosis ELISA kit from Chemicon International, Inc.

synoviocytes = test: Apoptosis induction in synoviocytes, nuclear condensation by Hoechst 33258 DNA staining; settings: FIG. 3B
Method: Then, synoviocytes were seeded at 2500 each to an eight-well Lab-Tek Chamber from the Nunc Company and were incubated for 24 hours in an incubator under 5% CO2 at 37° C. 67 nM siRNA was thereafter introduced into the synoviocytes using TransIT-TKO transfection reagent from the Miru Bio Corporation. After additional incubation for 48 hours in an incubator under 5% CO2 at 37° C., 50 μg/mL tunicamycin was added, followed by incubation for 48 hours under the same conditions. The cells were then fixed and nuclear condensation was confirmed by DNA staining with Hoechst 33258.

[2] = test system: osteoarthritis synoviocytes (OA); test: ER stress-inducible apoptosis, ssDNA Apoptosis ELISA, osteoarthritis synoviocytes; settings: OA synoviocytes (5 cases), 24 hours, FIG. 5
Method: as §1

rheumatoid synoviocytes = test: WST-8 assay of proliferation activity of rheumatoid synoviocytes after siRNA treatment; settings: 96 hours after siRNA treatment; anti-GFP siRNA negative control = 100; FIG. 3A
Method: The experiments were carried out as follows. Rheumatoid synoviocytes were seeded at 160 each into a 96-well, flat-bottom plate from the Falcon Co. After 24 hours, treatment was carried with anti-Synoviolin siRNA or anti-GFP siRNA, and the proliferation activity was investigated after an additional 96 hours. The GFP was used in this case as a negative control. The degree of cell proliferation was measured using a WST-8 assay from Dojindo Laboratories.

Substance | apoptosis (ssDNA Apoptosis ELISA) ([1]; tunicamycin 10 μg/mL) | apoptosis (ssDNA Apoptosis ELISA) ([1]; tunicamycin 30 μg/mL) | apoptosis (ssDNA Apoptosis ELISA) ([1]; tunicamycin 100 μg/mL) | apoptosis induction in synoviocytes (synoviocytes; 50 μg/mL tunicamycin, 48 hours) | apoptosis (ssDNA Apoptosis ELISA) ([2]; tunicamycin 10 μg/mL) | apoptosis (ssDNA Apoptosis ELISA) ([2]; tunicamycin 30 μg/mL) | apoptosis (ssDNA Apoptosis ELISA) ([2]; tunicamycin 100 μg/mL) | apoptosis induction in synoviocytes, co-use of siRNA with tunicamycin (synoviocytes; 67 nM siRNA 48 hours, then 50 μg/mL tunicamycin 48 hours) | proliferation activity of rheumatoid synoviocytes (GFP=100) (rheumatoid synoviocytes)
tunicamycin | 0.73±0.30 | 0.84±0.35 | 0.81±0.28 | caused apoptosis induction | 2.18±1.19 | 2.76±1.84 | 3.65±2.53 |  | 
anti-Synoviolin siRNA: small interfering RNA against the Synoviolin gene; sense CGUUCCUGGUACGCCGUCAUU (SEQ ID NO: 1), antisense UGACGGCGUACCAGGAACGUU (SEQ ID NO: 2) (listed as RNA, chemistry not given here) |  |  |  |  |  |  |  | increased | about 60%
